Assay results reported in the supplement of paper PMC11061612.

Columns and labels:
Olaparib = compound: O=C(c1cc(Cc2n[nH]c(=O)c3ccccc23)ccc1F)N1CCN(C(=O)C2CC2)CC1 [Olaparib]
Procedure, shortened: (§1)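 Viability was measured with CellTiter-Glo 2.0 luminescence after 72 hours of dosing at a final DMSO of typically 0.2%, and scaled between blank-well and DMSO-well means. Beforehand, cancer cell lines sat 24 hours at 37°C and 5% CO2 in 1536-well plates in 7.5 μl DMEM/F12 or RPMI with 10% FBS. A non-linear mixed effects model fitted two-parameter logistic curves to the dose responses. The single-agent IC50 comes from these fits.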

Alisertib = compound: COc1cc(Nc2ncc3c(n2)-c2ccc(Cl)cc2C(c2c(F)cccc2OC)=NC3)ccc1C(=O)O [Alisertib]; details: max 10 µM
Procedure, shortened: as §1

AZD4320 = compound: CN(CC[C@H](CSC1=CC=CC=C1)NC2=C(C=C(C=C2)S(=O)(=O)NC(=O)C3=CC=C(C=C3)N4CCC(CC4)[C@H](C5=CC=CC=C5C6=CC=C(C=C6)Cl)O)S(=O)(=O)C(F)(F)F)CCO [AZD4320]; details: max 1 µM
Procedure, shortened: as §1

AZD0156 = compound: CN(C)CCCOc1ccc(-c2ccc3ncc4c(c3c2)n(C2CCOCC2)c(=O)n4C)cn1 [AZD0156]; details: max 3 µM
Procedure, shortened: as §1

Selumetinib = compound: Cn1cnc2c(F)c(Nc3ccc(Br)cc3Cl)c(C(=O)NOCCO)cc21 [Selumetinib]; details: max 10 µM
Procedure, shortened: as §1

Trametinib = compound: CC(=O)Nc1cccc(-n2c(=O)n(C3CC3)c(=O)c3c(Nc4ccc(I)cc4F)n(C)c(=O)c(C)c32)c1 [Trametinib]; details: max 1 µM
Procedure, shortened: as §1

AZD6738 = compound: C[C@@H]1COCCN1C2=NC(=NC(=C2)C3(CC3)[S@](=N)(=O)C)C4=C5C=CNC5=NC=C4 [AZD6738]; details: max 10 µM
Procedure, shortened: as §1

Lapatinib = compound: CS(=O)(=O)CCNCc1ccc(-c2ccc3ncnc(Nc4ccc(OCc5cccc(F)c5)c(Cl)c4)c3c2)o1 [Lapatinib]; details: max 10 µM
Procedure, shortened: as §1

Crizotinib = compound: C[C@@H](Oc1cc(-c2cnn(C3CCNCC3)c2)cnc1N)c1c(Cl)ccc(F)c1Cl [Crizotinib]; details: max 10 µM
Procedure, shortened: as §1

AZD7648 = compound: Cc1cc2ncnn2cc1Nc1ncc2c(n1)n(C1CCOCC1)c(=O)n2C [AZD7648]; details: max 10 µM
Procedure, shortened: as §1

AZD5991 = compound: Cc1c2c(nn1C)CSCc1cc(n(C)n1)CSc1cc(c3ccccc3c1)OCCCc1c(C(=O)O)n(C)c3c-2c(Cl)ccc13 [AZD5991]; details: max 1 µM
Procedure, shortened: as §1

SN-38 = compound: CCc1c2c(nc3ccc(O)cc13)-c1cc3c(c(=O)n1C2)COC(=O)[C@]3(O)CC [SN-38]; details: max 0.3 µM
Procedure, shortened: as §1

Taselisib = compound: Cc1nc(-c2cn3c(n2)-c2ccc(-c4cnn(C(C)(C)C(N)=O)c4)cc2OCC3)n(C(C)C)n1 [Taselisib]; details: max 10 µM
Procedure, shortened: as §1

Capivasertib = compound: C1CN(CCC1(C(=O)N[C@@H](CCO)C2=CC=C(C=C2)Cl)N)C3=NC=NC4=C3C=CN4 [Capivasertib]
Procedure, shortened: as §1

AZD5153 = compound: COc1nnc2ccc(N3CCC(c4ccc(OCCN5CCN(C)C(=O)[C@H]5C)cc4)CC3)nn12 [AZD5153]; details: max 1 µM
Procedure, shortened: as §1

Palbociclib = compound: CC(=O)c1c(C)c2cnc(Nc3ccc(N4CCNCC4)cn3)nc2n(C2CCCC2)c1=O [Palbociclib]; details: max 10 µM
Procedure, shortened: as §1

Prexasertib = compound: COc1cccc(OCCCN)c1-c1cc(Nc2cnc(C#N)cn2)n[nH]1 [Prexasertib]; details: max 1 µM
Procedure, shortened: as §1

Savolitinib = compound: C[C@@H](c1ccc2nccn2c1)n1nnc2ncc(-c3cnn(C)c3)nc21 [Savolitinib]; details: max 1 µM
Procedure, shortened: as §1

Gefitinib = compound: COc1cc2ncnc(Nc3ccc(F)c(Cl)c3)c2cc1OCCCN1CCOCC1 [Gefitinib]; details: max 10 µM
Procedure, shortened: as §1

SG3199 = compound: CC1=CN2[C@@H](C1)C=NC3=CC(=C(C=C3C2=O)OC)OCCCCCOC4=C(C=C5C(=C4)N=C[C@@H]6CC(=CN6C5=O)C)OC [SG3199]; details: max 0.001 µM
Procedure, shortened: as §1

AZD1390 = compound: CC(C)n1c(=O)n(C)c2cnc3cc(F)c(-c4ccc(OCCCN5CCCCC5)nc4)cc3c21 [AZD1390]; details: max 0.3 µM
Procedure, shortened: as §1

Venetoclax = compound: CC1(C)CCC(CN2CCN(c3ccc(C(=O)NS(=O)(=O)c4ccc(NCC5CCOCC5)c([N+](=O)[O-])c4)c(Oc4cnc5[nH]ccc5c4)c3)CC2)=C(c2ccc(Cl)cc2)C1 [Venetoclax]; details: max 1 µM
Procedure, shortened: as §1

AZD8186 = compound: C[C@@H](Nc1cc(F)cc(F)c1)c1cc(C(=O)N(C)C)cc2c(=O)cc(N3CCOCC3)oc12 [AZD8186]; details: max 3 µM
Procedure, shortened: as §1

AZD2811 = compound: CCN(CCO)CCCOc1ccc2c(Nc3cc(CC(=O)Nc4cccc(F)c4)[nH]n3)ncnc2c1 [AZD2811]; details: max 1 µM
Procedure, shortened: as §1

Doxorubicin = compound: COc1cccc2c1C(=O)c1c(O)c3c(c(O)c1C2=O)C[C@@](O)(C(=O)CO)C[C@@H]3O[C@H]1C[C@H](N)[C@H](O)[C@H](C)O1 [Doxorubicin]; details: max 1 µM
Procedure, shortened: as §1

Dasatinib = compound: CC1=C(C(=CC=C1)Cl)NC(=O)C2=CN=C(S2)NC3=CC(=NC(=N3)C)N4CCN(CC4)CCO [Dasatinib]; details: max 2 µM
Procedure, shortened: as §1

AZD1775 = compound: C=CCn1c(=O)c2cnc(Nc3ccc(N4CCN(C)CC4)cc3)nc2n1-c1cccc(C(C)(C)O)n1 [AZD1775]; details: max 3 µM
Procedure, shortened: as §1

Cell Line | IC50, cell viability 72 h (Olaparib; max 10 µM) [nM] | IC50, cell viability 72 h (Alisertib) [nM] | IC50, cell viability 72 h (AZD4320) [nM] | IC50, cell viability 72 h (AZD0156) [nM] | IC50, cell viability 72 h (Selumetinib) [nM] | IC50, cell viability 72 h (Trametinib) [nM] | IC50, cell viability 72 h (AZD6738) [nM] | IC50, cell viability 72 h (Lapatinib) [nM] | IC50, cell viability 72 h (Crizotinib) [nM] | IC50, cell viability 72 h (AZD7648) [nM] | IC50, cell viability 72 h (AZD5991) [nM] | IC50, cell viability 72 h (SN-38) [nM] | IC50, cell viability 72 h (Taselisib) [nM] | IC50, cell viability 72 h (Capivasertib; max 10 µM) [nM] | IC50, cell viability 72 h (AZD5153) [nM] | IC50, cell viability 72 h (Palbociclib) [nM] | IC50, cell viability 72 h (Prexasertib) [nM] | IC50, cell viability 72 h (Savolitinib) [nM] | IC50, cell viability 72 h (Gefitinib) [nM] | IC50, cell viability 72 h (SG3199) [nM] | IC50, cell viability 72 h (AZD1390) [nM] | IC50, cell viability 72 h (Venetoclax) [nM] | IC50, cell viability 72 h (AZD8186) [nM] | IC50, cell viability 72 h (AZD2811) [nM] | IC50, cell viability 72 h (Doxorubicin) [nM] | IC50, cell viability 72 h (Dasatinib) [nM] | IC50, cell viability 72 h (AZD1775) [nM] | IC50, cell viability 72 h (Olaparib; max 3 µM) [nM] | IC50, cell viability 72 h (Capivasertib; max 3 µM) [nM]
HuH-7 (Hepatocellular Carcinoma) | > 10000 | > 10000 | > 1000 | > 3000 | > 10000 | > 1000 | > 10000 | > 10000 | > 10000 | > 10000 | > 1000 | > 300 | > 10000 | > 10000 | > 1000 | > 10000 | > 1000 | > 1000 | > 10000 | > 1 | > 300 | > 1000 | > 3000 | > 1000 | > 1000 | > 2000 | > 3000 |  | 
KMRC-20 (Kidney Carcinoma) | > 10000 | 6920 | > 1000 | > 3000 | > 10000 | > 1000 | > 10000 | > 10000 | > 10000 | > 10000 | > 1000 | 32.8 | > 10000 | > 10000 | > 1000 | > 10000 | 31.4 | > 1000 | > 10000 | > 1 | > 300 | > 1000 | > 3000 | > 1000 | > 1000 | 875 | 1290 |  | 
L-428 (Hodgkin's Lymphoma) | > 10000 | > 10000 | 475 | > 3000 | > 10000 | > 1000 | 5400 | > 10000 | > 10000 | > 10000 | > 1000 | 46.9 | > 10000 | > 10000 | 130 | > 10000 | 23.3 | > 1000 | > 10000 | > 1 | > 300 | > 1000 | > 3000 | > 1000 | 106 | > 2000 | 429 |  | 
LCLC-97TM1 (Non-Small Cell Lung Carcinoma) | > 10000 | 3440 | > 1000 | > 3000 | 3190 | 26.4 | 2280 | > 10000 | 4840 | > 10000 | > 1000 | 75.6 | 3360 | > 10000 | 153 | > 10000 | 28.3 | > 1000 | > 10000 | > 1 | > 300 | > 1000 | > 3000 | > 1000 | > 1000 | > 2000 | 1380 |  | 
MHH-CALL-2 (B-Lymphoblastic Leukemia) |  | 3120 | > 1000 | > 3000 | > 10000 | > 1000 | 3260 | > 10000 | 679 | > 10000 | 150 | 2.33 | 9370 | > 10000 | > 1000 | > 10000 | 93.4 | > 1000 | > 10000 |  | > 300 | > 1000 | > 3000 | > 1000 |  | > 2000 | 1070 | > 3000 | 
NCI-H209 (Small Cell Lung Carcinoma) | 1030 | 7740 | 18.4 | > 3000 | > 10000 | > 1000 | 2110 | > 10000 | > 10000 | > 10000 | > 1000 | 0.637 | > 10000 | > 10000 | > 1000 | > 10000 | 18.1 | > 1000 | > 10000 | > 1 | > 300 | 978 | > 3000 | 800 | 281 | > 2000 | 373 |  | 
NCI-H720 (Other Solid Carcinomas) | > 10000 |  |  | > 3000 |  |  | 6580 |  |  | > 10000 |  | > 300 |  |  |  |  | 441 |  |  | > 1 |  |  |  | 652 | > 1000 |  | 1480 |  | 812
OE21 (Esophageal Squamous Cell Carcinoma) | > 10000 | > 10000 | > 1000 | > 3000 | > 10000 | > 1000 |  | 6830 | > 10000 | > 10000 | > 1000 | 214 | 1030 | 5200 | 256 | > 10000 | 43.3 | > 1000 | 3380 | > 1 | > 300 | > 1000 | > 3000 | > 1000 | > 1000 | 1280 | 718 |  | 
